We go through one molecule from article PMC2594009 (Structure (London, England : 1993), 2008).

Entries after “also recorded” stand apart in the source; their conditions may differ.

The test system of one experiment is M2. The note with it: cited from earlier work.
In another experiment the test system is WT AM2. Type of experiment: cell-based, influenza A virus. The note with it: pH 5.5.

Consider `NC12CC3CC(CC(C3)C1)C2` [amantadine], for which, in the experiment on M2, the Hill coefficient (commonly the slope factor of the fitted curve) is listed as 1.0. In addition, the “reversibility of inhibition after removal of the drug” value with WT AM2 was “did not reverse; also recorded: not reversible”.
